Reference: PubChem BioAssay AID248 (DTP/NCI, 2004)
“And” between values parts separate entries of the source, which are not always exact repeats. Equal values may be shown once. Toxic doses and inconclusive results are not listed. No stated cut-off is given here; in the data, active means T/C of 150% or more; inactive means T/C below 125%.

Tested on: L1210 leukemia ip in BDF1 mice, survival T/C
Experiment: NCI In Vivo Anticancer Drug Screen. Data for tumor model L1210 Leukemia (intraperitoneal) in B6D2F1 (BDF1) mice
Details: endpoint: mean survival time, higher = longer survival
Method in brief: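 Antitumor effect is assessed in tumor-bearing animals. Survival in the compound arm is compared with a vehicle-dosed control arm and expressed as their quotient.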

[1] = dose: 100.0 mg/kg/injection, schedule: Q01DX001 (ip), vehicle: carboxymethylcellulose (CMC)
[2] = dose: 200.0 mg/kg/injection, schedule: Q01DX001 (ip), vehicle: carboxymethylcellulose (CMC)
[3] = dose: 400.0 mg/kg/injection, schedule: Q01DX001 (ip), vehicle: carboxymethylcellulose (CMC)

Measured: T/C

Nc1nc(Cl)c(N=Nc2ccccc2)c(=O)[nH]1
inactive: dose: 25.0 mg/kg/injection, schedule: Q01DX009 (ip), vehicle: carboxymethylcellulose (CMC) 97 % of control and 98 % of control | dose: 50.0 mg/kg/injection, schedule: Q01DX009 (ip), vehicle: carboxymethylcellulose (CMC) 93 % of control and 90 % of control | [1] 95 % of control and 102 % of control | dose: 100.0 mg/kg/injection, schedule: Q04DX002 (ip), vehicle: carboxymethylcellulose (CMC) 97 % of control and 89 % of control | dose: 100.0 mg/kg/injection, schedule: Q04DX003 (ip), vehicle: carboxymethylcellulose (CMC) 100 % of control and 108 % of control | [2] 98 % of control and 109 % of control | dose: 200.0 mg/kg/injection, schedule: Q04DX002 (ip), vehicle: carboxymethylcellulose (CMC) 93 % of control | dose: 200.0 mg/kg/injection, schedule: Q04DX003 (ip), vehicle: carboxymethylcellulose (CMC) 106 % of control and 113 % of control | [3] 95 % of control and 98 % of control | dose: 400.0 mg/kg/injection, schedule: Q04DX002 (ip), vehicle: carboxymethylcellulose (CMC) 93 % of control and 98 % of control | dose: 400.0 mg/kg/injection, schedule: Q04DX003 (ip), vehicle: carboxymethylcellulose (CMC) 100 % of control and 106 % of control

CC(=O)Nc1ccc(NC(=O)Nc2cccc(C(F)(F)F)c2)cc1
inactive: dose: 100.0 mg/kg/injection, schedule: Q01DX009 (ip), vehicle: Klucel (hydroxypropylcellulose) (HPC) 94 % of control | dose: 200.0 mg/kg/injection, schedule: Q01DX009 (ip), vehicle: Klucel (hydroxypropylcellulose) (HPC) 87 % of control

Cc1n(C)c(=O)c2ccccc2[n+]1C
inactive: dose: 100.0 mg/kg/injection, schedule: Q01DX001 (ip), vehicle: Klucel (hydroxypropylcellulose) (HPC) 106 % of control | dose: 200.0 mg/kg/injection, schedule: Q01DX001 (ip), vehicle: Klucel (hydroxypropylcellulose) (HPC) 87 % of control | dose: 400.0 mg/kg/injection, schedule: Q01DX001 (ip), vehicle: Klucel (hydroxypropylcellulose) (HPC) 97 % of control

Cc1cc(N(CCCl)CCCl)ccc1C=Nc1ccc(-c2csc(COc3ccccc3)n2)c(Cl)c1
inactive: [1] 95 % of control | [2] 108 % of control | [3] 103 % of control

O=C/C(=C/Nc1ccc(C(=O)O)cc1)[N+](=O)[O-]
inactive: dose: 100.0 mg/kg/injection, schedule: Q04DX002 (ip), vehicle: Klucel (hydroxypropylcellulose) (HPC) 109 % of control | dose: 200.0 mg/kg/injection, schedule: Q04DX002 (ip), vehicle: Klucel (hydroxypropylcellulose) (HPC) 98 % of control | dose: 400.0 mg/kg/injection, schedule: Q04DX002 (ip), vehicle: Klucel (hydroxypropylcellulose) (HPC) 98 % of control

CCCCCCCCCCCCCCCCn1cnc2c(=S)nc[nH]c21
inactive: dose: 12.5 mg/kg/injection, schedule: Q01DX005 (ip), vehicle: other 102 % of control | dose: 25.0 mg/kg/injection, schedule: Q01DX005 (ip), vehicle: other 96 % of control | dose: 50.0 mg/kg/injection, schedule: Q01DX005 (ip), vehicle: other 104 % of control | dose: 100.0 mg/kg/injection, schedule: Q01DX005 (ip), vehicle: other 104 % of control | dose: 200.0 mg/kg/injection, schedule: Q01DX005 (ip), vehicle: other 96 % of control

C[N+]1(CCCNC2=CC(=O)C=CC2=O)CCCC1
inactive: dose: 0.5 mg/kg/injection, schedule: Q01DX001 (ip), vehicle: saline 108 % of control

CN1CC2(Cc3ccccc3)c3ccccc3NC2(NC(=O)CCl)C1=O (stereo unspecified)
inactive: dose: 25.0 mg/kg/injection, schedule: Q04DX002 (ip), vehicle: saline with Tween-80 87 % of control | dose: 50.0 mg/kg/injection, schedule: Q04DX002 (ip), vehicle: saline with Tween-80 90 % of control | dose: 100.0 mg/kg/injection, schedule: Q04DX002 (ip), vehicle: saline with Tween-80 91 % of control

OCCCCc1nccc2c1[nH]c1ccccc12
inactive: dose: 25.0 mg/kg/injection, schedule: Q01DX009 (ip), vehicle: saline 93 % of control | dose: 50.0 mg/kg/injection, schedule: Q01DX009 (ip), vehicle: saline 88 % of control | [1] 86 % of control | [2] 93 % of control | [3] 98 % of control

CCCCC/C(=N\OC(=O)NC)C(F)(F)F
inactive: dose: 5.0 mg/kg/injection, schedule: Q01DX001 (ip), vehicle: saline 96 % of control | dose: 10.0 mg/kg/injection, schedule: Q01DX001 (ip), vehicle: saline 104 % of control | dose: 20.0 mg/kg/injection, schedule: Q01DX001 (ip), vehicle: saline 100 % of control | dose: 40.0 mg/kg/injection, schedule: Q01DX001 (ip), vehicle: saline 98 % of control | dose: 80.0 mg/kg/injection, schedule: Q01DX001 (ip), vehicle: saline 94 % of control
